Test results taken from ChEMBL document CHEMBL4387758, “Discovery and Biological evaluation of pyrimido[4,5-d]pyrimidine-2,4(1H,3H)-dione derivatives as potent Bruton's tyrosine kinase inhibitors” (Bioorg Med Chem, 2019).

What was measured:
[1] = biological target: T1, Tyrosine-protein kinase BTK (Homo sapiens, UniProt Q06187); test: Inhibition of BTK (unknown origin) by ELISA
TMD8 [2] = test: Cell cycle arrest in BTK-dependent human TMD8 cells assessed as accumulation of cells in G1 phase at 1 uM incubated for 72 hrs by propidium iodide staining based flow cytometry; format: functional
Ramos = test: cells; conditions: Homo sapiens, 72 h
Description: Antiproliferative activity against human Ramos cells assessed as reduction in cell viability incubated for 72 hrs by CCK-8 assay

TMD8 [3] = test: Antiproliferative activity against human TMD8 cells assessed as reduction in cell viability incubated for 72 hrs by CCK-8 assay; format: functional, cell-based; conditions: TMD8, 72 h
[4] = biological target: T1, Tyrosine-protein kinase BTK; test: Inhibition of BTK phosphorylation at Tyr223 residue in human TMD8 cells at 0.1 to 1000 nM by Western blot analysis; format: cell-based
Homo sapiens = species: Homo sapiens; test: Selectivity ratio of IC50 for inhibition of EGFR (unknown origin) to IC50 for inhibition of BTK (unknown origin)

T1 sequence (Q06187 whole entry): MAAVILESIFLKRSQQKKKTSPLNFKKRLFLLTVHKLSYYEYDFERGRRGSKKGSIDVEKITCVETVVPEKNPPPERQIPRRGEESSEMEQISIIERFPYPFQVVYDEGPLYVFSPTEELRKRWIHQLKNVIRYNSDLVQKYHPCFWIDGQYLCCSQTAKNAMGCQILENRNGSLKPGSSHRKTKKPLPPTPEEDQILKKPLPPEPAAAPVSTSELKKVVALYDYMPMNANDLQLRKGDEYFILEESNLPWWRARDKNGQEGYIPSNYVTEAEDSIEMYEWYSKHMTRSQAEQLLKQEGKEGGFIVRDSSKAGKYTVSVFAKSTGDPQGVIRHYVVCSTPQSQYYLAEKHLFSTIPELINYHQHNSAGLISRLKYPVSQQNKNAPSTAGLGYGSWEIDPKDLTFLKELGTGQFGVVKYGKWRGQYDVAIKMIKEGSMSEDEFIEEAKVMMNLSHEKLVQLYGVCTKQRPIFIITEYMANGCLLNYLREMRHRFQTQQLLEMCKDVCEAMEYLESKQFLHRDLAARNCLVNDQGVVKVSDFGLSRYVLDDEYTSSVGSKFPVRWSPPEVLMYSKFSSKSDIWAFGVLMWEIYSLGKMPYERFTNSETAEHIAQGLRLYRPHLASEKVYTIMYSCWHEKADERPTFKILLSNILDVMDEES

IC50 [1] [µM] | SMILES | also measured
0.145 | C=CC(=O)Nc1cccc(-n2c(=O)n(C(C)C)c(=O)c3cnc(Nc4ccc(N5CCC(N6CCN(C)CC6)CC5)cc4OC)nc32)c1 | –
0.076 | C=CC(=O)Nc1cccc(-n2c(=O)n(CCCc3ccccc3)c(=O)c3cnc(Nc4ccc(N5CCC(N(C)C)CC5)cc4OC)nc32)c1 | –
0.852 | C=CC(=O)Nc1cccc(-n2c(=O)n(C)c(=O)c3cnc(Nc4ccc(N5CCOCC5)cc4OC)nc32)c1 | –
0.0062 | C=CC(=O)Nc1cccc(-n2c(=O)n(C)c(=O)c3cnc(Nc4ccccc4)nc32)c1 | –
0.806 | C=CC(=O)Nc1cccc(-n2c(=O)n(C)c(=O)c3cnc(Nc4ccc(N5CCSCC5)cc4OC)nc32)c1 | –
0.718 | C=CC(=O)Nc1cccc(-n2c(=O)n(C)c(=O)c3cnc(Nc4ccc(N5CCN(C(C)=O)CC5)cc4OC)nc32)c1 | –
0.0008 | C=CC(=O)Nc1cccc(-n2c(=O)n(C(C)C)c(=O)c3cnc(Nc4ccc(N5CCN(C)CC5)c(C)c4)nc32)c1 | Activity (TMD8 [2]): 75.2%; IC50 (Ramos): 9.21 µM; IC50 (TMD8 [3]): 0.72 µM; inhibition [4]: Dose-dependent effect
0.03 | C=CC(=O)Nc1cccc(-n2c(=O)n(CCC)c(=O)c3cnc(Nc4ccc(N5CCC(N(C)C)CC5)cc4OC)nc32)c1 | –
0.996 | C=CC(=O)Nc1cccc(-n2c(=O)n(C)c(=O)c3cnc(Nc4ccccc4OC)nc32)c1 | –
0.248 | C=CC(=O)Nc1cccc(-n2c(=O)n(Cc3ccccc3)c(=O)c3cnc(Nc4ccc(N5CCC(N(C)C)CC5)cc4OC)nc32)c1 | Ratio IC50 (Homo sapiens): 206
0.518 | C=CC(=O)Nc1cccc(-n2c(=O)n(C(C)C)c(=O)c3cnc(Nc4ccc(N5CCN(C)CC5)cc4OC)nc32)c1 | –
0.364 | C=CC(=O)Nc1cccc(-n2c(=O)n(C)c(=O)c3cnc(Nc4ccc(N5CCC(N(C)C)CC5)cc4OC)nc32)c1 | –
0.0012 | C=CC(=O)Nc1cccc(-n2c(=O)n(C(C)C)c(=O)c3cnc(Nc4ccc(N5CCN(C)CC5)c(OC)c4)nc32)c1 | Activity (TMD8 [2]): 75.4%; IC50 (Ramos): 9.65 µM; IC50 (TMD8 [3]): 0.81 µM; inhibition [4]: Dose-dependent effect
0.023 | C=CC(=O)Nc1cccc(-n2c(=O)n(CCc3ccccc3)c(=O)c3cnc(Nc4ccc(N5CCC(N(C)C)CC5)cc4OC)nc32)c1 | –
0.359 | C=CC(=O)Nc1cccc(-n2c(=O)n(C(C)C)c(=O)c3cnc(Nc4ccc(N5CCC(N(C)C)CC5)cc4OC)nc32)c1 | –
0.396 | C=CC(=O)Nc1cccc(-n2c(=O)n(CC)c(=O)c3cnc(Nc4ccc(N5CCC(N(C)C)CC5)cc4OC)nc32)c1 | –
0.349 | C=CC(=O)Nc1cccc(-n2c(=O)n(C(C)C)c(=O)c3cnc(Nc4ccc(OCCN(C)C)cc4OC)nc32)c1 | –
0.982 | C=CC(=O)Nc1cccc(-n2c(=O)n(C(C)C)c(=O)c3cnc(Nc4ccc(N(C)CCN(C)C)cc4OC)nc32)c1 | –
